Reference: publication PMC8555409 (Journal of medicinal chemistry, 2021)
Non-standard residues stand in square brackets, D forms with d. Residues, ends and D or L forms follow the SMILES beside them. *: point of attachment. Cyclohexanoyl(1S,3S-3-NH2) = N[C@H]1CCC[C@H](C(=O)*)C1; Trp(5-OH) = N[C@@H](Cc1c[nH]c2ccc(O)cc12)C(=O)O; NH(4-morpholinophenyl) = c1cc(N2CCOCC2)ccc1N*; Bip = N[C@@H](Cc1ccc(-c2ccccc2)cc1)C(=O)O; hArg = N=C(N)NCCCC[C@H](N)C(=O)O

Key:
[1] = test system: EphA4; details: cited from earlier work
[2] = test system: SOD1(G93A) transgenic mice; details: daily in vivo administration; cited from earlier work
[3] = test system: motor neurons co-cultured with iAstrocytes derived from sALS patients; assay type: cell-based, mouse; details: 100 μM, 3 days co-culture
[4] = target: EphA4-LBD (Homo sapiens, UniProt P54764, C204A); experiment: 2D [13C,1H] NMR chemical shift perturbations with 13Cε-Met labeled EphA4-LBD
EphA4-LBD, sequence (P54764 29-209 C204A): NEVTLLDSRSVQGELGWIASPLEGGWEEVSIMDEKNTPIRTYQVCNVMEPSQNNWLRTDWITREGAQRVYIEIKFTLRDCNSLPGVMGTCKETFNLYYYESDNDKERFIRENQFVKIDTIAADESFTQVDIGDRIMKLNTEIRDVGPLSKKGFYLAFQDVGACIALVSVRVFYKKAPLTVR

For `COc1ccc2[nH]cc(CCNC(=O)[C@H](Cc3ccncc3)NC(=O)[C@H](Cc3ccc(Cl)cc3)NC(=O)[C@H](Cc3c[nH]c4ccc(O)cc34)NC(=O)CCCN)c2c1` [123C4], the “agonistic activity for EphA4 in primary cortical neurons” value [1] is given as “induced receptor phosphorylation and growth cone collapse”, the survival [2] is given as “significantly prolonged survival” and the “protection of motor neurons from sALS iAstrocytes (motor neuron survival)” value [3] is given as “able to protect mouse motor neurons”.
Molecule `N=C(N)NCCCC[C@H](NC(=O)[C@H](Cc1ccc(-c2ccccc2)cc1)NC(=O)[C@H](Cc1c[nH]c2ccc(O)cc12)NC(=O)[C@H]1CCC[C@H](N)C1)C(=O)NCC(=O)Nc1ccc(N2CCOCC2)cc1` [compound 33] ({Cyclohexanoyl(1S,3S-3-NH2)}-[Trp(5-OH)][Bip][hArg]G-{NH(4-morpholinophenyl)}) has a Kd [4] of less than 60 nM.
